# Laboratory results taken from US20240383904A1, “HETEROCYCLIC COMPOUNDS” (Hoffmann-La Roche Inc., priority 2021, published 2024).
# Target: T1, MAGL (Homo sapiens, UniProt Q99685)
# T1 sequence (Q99685 1-303): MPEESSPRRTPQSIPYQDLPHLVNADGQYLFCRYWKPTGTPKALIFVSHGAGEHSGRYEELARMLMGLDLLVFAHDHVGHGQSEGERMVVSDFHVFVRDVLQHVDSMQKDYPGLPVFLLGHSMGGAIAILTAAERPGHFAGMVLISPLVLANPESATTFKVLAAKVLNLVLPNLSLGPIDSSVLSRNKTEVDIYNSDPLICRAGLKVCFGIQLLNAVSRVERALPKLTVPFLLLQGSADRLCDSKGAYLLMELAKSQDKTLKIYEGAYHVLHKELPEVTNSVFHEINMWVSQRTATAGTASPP
# Assay: 2-AG assay: MAGL inhibitory activity by hydrolysis of 2-arachidonoylglycerol to arachidonic acid, followed by mass spectrometry
# Assay type: biochemical
# Description: Compounds of formula (I) were profiled for MAGL inhibitory activity by determining the enzymatic activity by following the hydrolysis of the natural substrate 2-arachidonoylglycerol (2-AG) resulting in arachidonic acid, which can be followed by mass spectrometry. This assay is hereinafter abbreviated “2-AG assay”.
# Compounds of formula (I) were profiled for MAGL inhibitory activity by determining the enzymatic activity by following the hydrolysis of the natural substrate 2-arachidonoylglycerol (2-AG) resulting in arachidonic acid, which can be followed by mass spectrometry. This assay is hereinafter abbreviated “2-AG assay”. The 2-AG assay was carried out in 384 well polypropylene assay plates. Compound dilutions were made in 100% DMSO in a polypropylene plate in 3-fold dilution steps to give a final concentration range in the assay from 12.5 μM to […]. Compound dilutions were added to MAGL protein in assay buffer (50 mM TRIS, 1 mM EDTA, 0.01% (v/v) Tween-20, 2.5% (v/v) DMSO). After shaking, the plate was incubated for 15 min at RT. To start the reaction, 2-arachidonoylglycerol in assay buffer was added. The final concentrations in the assay was […] for MAGL protein and 8 μM 2-arachidonoylglyerol. After shaking and 30 min incubation at RT, the reaction was quenched by the addition of two assay volumes of acetonitrile containing 4 μM of d8-arachidonic acid. The amount of arachidonic acid formed was traced by an online SPE system (Agilent Rapidfire) coupled to a triple quadrupole mass spectrometer. A C18 SPE cartridge (Agilent G9205A) was used in an acetonitrile/water liquid setup. The mass spectrometer was operated in negative electrospray mode following the mass transitions 303.1→259.1 for arachidonic acid and 311.1→267.0 for d8-arachidonic acid. The activity of the compounds was calculated based on the ratio of intensities [arachidonic acid/d 8-arachidonic acid].
# [1] = 15 min preincubation, 30 min reaction at RT, 8 μM 2-arachidonoylglycerol
IC50 [1],IC50 (unit nM),Molecule
437 nM,–,"N=[S@@](=O)(c1ccc(CC2CC3(C2)CN(C(=O)N2CC4(CCCC(=O)N4)C2)C3)cc1)C(F)(F)F (single isomer, unassigned) [Example 287, 2-[6-[[4-(trifluoromethylsulfoni-midoyl)phenyl]methyl]-2-azaspiro[3.3]heptane-2-carbonyl]-2,5-diazaspiro[3.5]nonan-6-one]"
0.91 nM,–,N=S(=O)(c1cccc(CC2CC3(C2)CN(C(=O)N2CC4(CCC(=O)N4)C2)C3)c1)C(F)(F)F (stereo not drawn) [Example 1]
1.15 nM,–,"O=C1NC2(CO1)CN(C(=O)N1CC3(CC(Cc4cnc(C(F)(F)F)cn4)C3)C1)C2 [Example 5, 2-[6-[[5-(trifluoromethyl)pyrazin-2-y1]methyl]-2-azaspiro[3.3]heptane-2-carbonyl]-7-oxa-2,5-diazaspiro[3.4]octan-6-one]"
0.47 nM,–,"O=C1CCC2(CN(C(=O)N3CC4(CC(Cc5ccc(OC(F)(F)F)cn5)C4)C3)C2)N1 [Example 6, 2-[6-[[5-(trifluoromethoxy)-2-pyridyl]methyl]-2-azaspiro[3.3]heptane-2-carbonyl]-2,5-diazaspiro[3.4]octan-6-one]"
15.1 nM,–,"CS(=O)(=O)c1ccc(CC2CC3(C2)CN(C(=O)N2CC4(CCC(=O)N4)C2)C3)cc1 [Example 8, 2-[6-(4-mesylbenzyl)-2-azaspiro[3.3]heptane-2-carbonyl]-2,5-diazaspiro[3.4]octan-6-one]"
24.5 nM,–,"CS(=O)(=O)c1cc(F)cc(CC2CC3(C2)CN(C(=O)N2CC4(CCC(=O)N4)C2)C3)c1 [Example 10, 2-[6-(3-fluoro-5-mesyl-benzyl)-2-azaspiro[3.3]heptane-2-carbonyl]-2,5-diazaspiro[3.4]octan-6-one]"
31.2 nM,–,"O=C1CCC2(CN(C(=O)N3CC4(CC(Cc5cnc(C(F)(F)F)nc5)C4)C3)C2)N1 [Example 11, 2-[6-[[2-(trifluoromethyl)pyrimi-din-5-y1]methyl]-2-azaspiro[3.3]heptane-2-carbonyl]-2,5-diazaspiro[3.4]octan-6-one]"
0.3 nM,–,"CS(=O)(=O)c1cc(F)ccc1CC1CC2(C1)CN(C(=O)N1CC3(COC(=O)N3)C1)C2 [Example 15, 2-[6-(4-fluoro-2-mesyl-benzyl)-2-azaspiro[3.3]heptane-2-carbonyl]-7-oxa-2,5-diazaspiro[3.4]octan-6-one]"
3.29 nM,–,"N#Cc1cc(CC2CC3(C2)CN(C(=O)N2CC4(CNC(=O)N4)C2)C3)ccc1C(F)(F)F [Example 17, 5-[[2-(6-keto-2,5,7-triazaspiro[3.4]octane-2-carbonyl)-2-azaspiro[3.3]heptan-6-yl]methyl]-2-(trifluoromethyl)benzoni-trile]"
0.02 nM,–,"N#Cc1cc(CC2CC3(C2)CN(C(=O)N2CC4(COC(=O)N4)C2)C3)ccc1C(F)(F)F [Example 18, 5-[[2-(6-keto-7-oxa-2,5-diazaspiro[3.4]octane-2-carbonyl)-2-azaspiro[3.3]heptan-6-yl]methyl]-2-(trifluoromethyl)benzoni-trile]"
–,< 5 nM,"O=C1NC2(CO1)CN(C(=O)N1CC3(CC(Cc4ccc(F)cc4F)C3)C1)C2 [Example 23, 2-[6-(2,4-difluorobenzyl)-2-azaspiro[3.3]heptane-2-carbonyl]-7-oxa-2,5-diazaspiro[3.4]octan-6-one]"

# The remaining lines, values behind:
Molecule,IC50 [1],IC50 (unit nM)
"2-[6-[[6- (trifluoromethyl)pyrida- zin-3-y1]methyl]-2- azaspiro[3.3]heptane-2- carbonyl]-2,5- diazaspiro[3.4]octan-6- one [Example 12]",36.4 nM,–
"CS(=O)(=O)c1ccc(C[C@@H]2CCC3(C2)CN(C(=O)N2CC4(COCC(=O)N4)C2)C3)cc1 (single isomer, unassigned) [Example 73]",80.2 nM,–
"CS(=O)(=O)c1ccc(C[C@H]2CCC3(C2)CN(C(=O)N2CC4(COCC(=O)N4)C2)C3)cc1 (single isomer, unassigned) [Example 74]",77.7 nM,–
"O=C1NC2(CO1)CN(C(=O)N1CC3(CC[C@H](Oc4cnc(C(F)(F)F)cn4)C3)C1)C2 (single isomer, unassigned) [Example 100]",3.42 nM,–
"O=C1NC2(CO1)CN(C(=O)N1CC3(CCC(Oc4cnc(C(F)(F)F)cn4)C3)C1)C2 (single isomer, unassigned) [Example 104]",2.85 nM,–
"N=[S@@](=O)(c1ccc(CC2CC3(C2)CN(C(=O)N2CC4(CCCC(=O)N4)C2)C3)cc1)C(F)(F)F (single isomer, unassigned) [Example 284, 2-[6-[[4-(trifluoromethylsulfoni-midoyl)phenyl]methyl]-2-azaspiro[3.3]heptane-2-carbonyl]-2,5-diazaspiro[3.5]nonan-6-one]",120 nM,–
"N=S(=O)(c1ccc(CC2CC3(C2)CN(C(=O)N2CC4(CCC(=O)N4)C2)C3)cc1)C(F)(F)F (stereo not drawn) [Example 2, 2-[6-[4-(trifluoromethylsulfoni-midoyl)benzyl]-2-azaspiro[3.3]heptane-2-carbonyl]-2,5-diazaspiro[3.4]octan-6-one]",2.15 nM,–
"O=C1CCC2(CN(C(=O)N3CC4(CC(Cc5ccc(C(F)(F)F)nc5)C4)C3)C2)N1 [Example 3, 2-[6-[[6-(trifluoromethyl)-3-pyridyl]methyl]-2-azaspiro[3.3]heptane-2-carbonyl]-2,5-diazaspiro[3.4]octan-6-one]",2.85 nM,–
"O=C1CCC2(CN(C(=O)N3CC4(CC(Cc5cnc(C(F)(F)F)cn5)C4)C3)C2)N1 [Example 4, 2-[6-[[5-(trifluoromethyl)pyrazin-2-yl]methyl]-2-azaspiro[3.3]heptane-2-carbonyl]-2,5-diazaspiro[3.4]octan-6-one]",11.2 nM,–
"O=C1CCC2(CN(C(=O)N3CC4(CC(Cc5ncc(C(F)(F)F)cc5F)C4)C3)C2)N1 [Example 7, 2-[6-[[3-fluoro-5-(trifluoromethyl)-2-pyridyl]methyl]-2-azaspiro[3.3]heptane-2-carbonyl]-2,5-diazaspiro[3.4]octan-6-one]",0.35 nM,–
"CS(=O)(=O)c1cccc(CC2CC3(C2)CN(C(=O)N2CC4(CCC(=O)N4)C2)C3)c1 [Example 9, 2-[6-(3-mesylbenzyl)-2-azaspiro[3.3]heptane-2-carbonyl]-2,5-diazaspiro[3.4]octan-6-one]",20.5 nM,–
"CS(=O)(=O)c1ccc(CC2CC3(C2)CN(C(=O)N2CC4(COC(=O)N4)C2)C3)cc1 [Example 13, 2-[6-(4-mesylbenzyl)-2-azaspiro[3.3]heptane-2-carbonyl]-7-oxa-2,5-diazaspiro[3.4]octan-6-one]",0.93 nM,–
"O=C1NC2(CO1)CN(C(=O)N1CC3(CC(Cc4ccc(C(F)(F)F)nc4)C3)C1)C2 [Example 14, 2-[6-[[6-(trifluoromethyl)-3-pyridyl]methyl]-2-azaspiro[3.3]heptane-2-carbonyl]-7-oxa-2,5-diazaspiro[3.4]octan-6-one]",0.84 nM,–
"N#Cc1cc(CC2CC3(C2)CN(C(=O)N2CC4(CCC(=O)N4)C2)C3)ccc1C(F)(F)F [Example 16, 5-[[2-(6-keto-2,5-diazaspiro[3.4]octane-2-carbonyl)-2-azaspiro[3.3]heptan-6-yl]methyl]-2-(trifluoromethyl)benzoni-trile]",0.09 nM,–
"O=C1CCC2(CN(C(=O)N3CC4(CC(Cc5ncc(C(F)(F)F)cn5)C4)C3)C2)N1 [Example 19, 2-[6-[[5-(trifluoromethyl)pyrimi-din-2-yl]methyl]-2-azaspiro[3.3]heptane-2-carbonyl]-2,5-diazaspiro[3.4]octan-6-one]",7 nM,–
"O=C1NC2(CO1)CN(C(=O)N1CC3(CC(Cc4ccc(Cl)cn4)C3)C1)C2 [Example 20, 2-[6-[(5-chloro-2-pyridyl)methyl]-2-azaspiro[3.3]heptane-2-carbonyl]-7-oxa-2,5-diazaspiro[3.4]octan-6-one]",0.31 nM,–
"O=C1NC2(CO1)CN(C(=O)N1CC3(CC(Cc4cccc(S(=O)(=O)C(F)(F)F)c4)C3)C1)C2 [Example 21, 2-[6-(3-triflylbenzyl)-2-azaspiro[3.3]heptane-2-carbonyl]-7-oxa-2,5-diazaspiro[3.4]octan-6-one]",0.01 nM,–
"O=C1NC2(CO1)CN(C(=O)N1CC3(CC(Cc4ccc(F)cc4C(F)(F)F)C3)C1)C2 [Example 22, 2-[6-[4-fluoro-2-(trifluoromethyl)benzyl]-2-azaspiro[3.3]heptane-2-carbonyl]-7-oxa-2,5-diazaspiro[3.4]octan-6-one]",–,< 5 nM
"O=C1NC2(CO1)CN(C(=O)N1CC3(CC(Cc4ccc(C(F)(F)F)cc4F)C3)C1)C2 [Example 24, 2-[6-[2-fluoro-4-(trifluoromethyl)benzyl]-2-azaspiro[3.3]heptane-2-carbonyl]-7-oxa-2,5-diazaspiro[3.4]octan-6-one]",–,< 5 nM
